Reference: PMC10840383, “Clinical features, functional consequences, and rescue pharmacology of missense GRID1 and GRID2 human variants” (Human Molecular Genetics, 2023)

Molecular target: T1, GluD2-A654T-R710W (Rattus norvegicus, UniProt Q63226, A654T/R710W)
T1 construct: expressed in transfected cells; host or cells: Xenopus laevis oocytes injected with cRNA
T1 sequence (Q63226 24-1007 A654T/R710W): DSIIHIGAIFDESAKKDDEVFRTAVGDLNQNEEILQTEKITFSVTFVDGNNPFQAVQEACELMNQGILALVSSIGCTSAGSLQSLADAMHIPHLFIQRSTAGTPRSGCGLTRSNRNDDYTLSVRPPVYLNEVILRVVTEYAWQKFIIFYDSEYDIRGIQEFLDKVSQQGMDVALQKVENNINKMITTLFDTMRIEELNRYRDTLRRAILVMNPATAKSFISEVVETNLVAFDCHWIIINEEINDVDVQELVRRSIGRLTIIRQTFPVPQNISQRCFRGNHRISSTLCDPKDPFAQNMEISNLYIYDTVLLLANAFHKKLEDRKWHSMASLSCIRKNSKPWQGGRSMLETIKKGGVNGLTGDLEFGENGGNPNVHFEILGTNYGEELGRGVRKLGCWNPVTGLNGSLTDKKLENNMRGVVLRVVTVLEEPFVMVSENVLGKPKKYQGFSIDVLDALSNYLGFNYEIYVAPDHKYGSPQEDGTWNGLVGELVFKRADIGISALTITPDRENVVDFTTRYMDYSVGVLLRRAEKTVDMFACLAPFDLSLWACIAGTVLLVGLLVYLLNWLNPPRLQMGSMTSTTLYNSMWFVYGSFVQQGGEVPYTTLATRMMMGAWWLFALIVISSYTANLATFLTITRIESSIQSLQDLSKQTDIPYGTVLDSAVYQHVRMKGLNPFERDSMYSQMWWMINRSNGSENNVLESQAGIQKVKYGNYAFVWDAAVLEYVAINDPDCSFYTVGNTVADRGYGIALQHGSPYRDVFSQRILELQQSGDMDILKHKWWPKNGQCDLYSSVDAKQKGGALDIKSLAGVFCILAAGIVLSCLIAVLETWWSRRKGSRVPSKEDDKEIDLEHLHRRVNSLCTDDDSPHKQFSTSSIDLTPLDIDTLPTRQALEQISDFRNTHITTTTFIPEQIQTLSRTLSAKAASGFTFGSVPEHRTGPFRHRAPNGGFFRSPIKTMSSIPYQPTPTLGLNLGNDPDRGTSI
Assay: TEVC of constitutive current, Xenopus oocytes expressing GluD2-A654T-R710W
Assay type: cell-based
Source text: Human GluD1 (GRID1) and rat GluD2 (Grid2) cDNAs were introduced into the pGEM-HE and pCI-neo vectors. GRID1 (NM_017551.3) gene fragments were synthesized by Integrated DNA Technologies and cloned into empty vectors using InFusion cloning (Clontech). […] However, rat and human GluD2-encoding cDNA are identical in the M3 domain in which many of the variants we studied reside (see Supplementary Fig. S1). The full open reading frame for both constructs were verified by Sanger sequencing (Eurofins) and the full plasmid sequence was verified by whole plasmid sequencing (plasmidsaurus). Variant cDNA changes identified in patients were introduced into the cloned human GRID1 (NM_017551.3) in pGEM-HE and cloned rat Grid2 cDNA sequence (NM_024379.1) in pGEM-HE vector using Quikchange Lightning (Agilent) protocol according to the manufacturer’s instructions. Vectors were linearized and cRNA was synthesized using T7 RNA mMESSAGE kit (Invitrogen).
Xenopus laevis oocytes were prepared from ovaries purchased from Xenopus 1 (Dexter, MI) as previously described, [68] and incubated at 16°C in culture Barth’s solution (in mM) 88 NaCl, 2.4 NaHCO3, 1 KCl, 0.33 Ca(NO3)2, 0.41 CaCl2, 0.82 MgSO4, 10 HEPES, pH 7.4 with NaOH, supplemented with 1 U/ml penicillin and 1 μg/ml streptomycin. Oocytes were injected with approximately 5–40 ng RNA per oocyte and then incubated at 16–19°C for 1–3 days in culture Barth’s solution. […] Two-electrode voltage clamp (TEVC) recordings were performed as previously described. Unless otherwise specified, extracellular solution contained (in mM) 90 NaCl, 3 KCl, 0.5 BaCl2, 0.01 EDTA, 10 HEPES, and was brought to pH 7.4 with NaOH. The oocytes were placed in a dual track recording chamber and gravity perfused with solution exchange controlled via a computer-driven 8-valve positioner (Digital MVP Valve). […] Recording electrodes were filled with 0.3 M KCl, and currents were recorded with membrane voltage held at −40 mV. To establish constitutive activity of recombinant receptors when compared to wild type receptors, we used the oocyte recording solution described above, but with 90 mM N-methyl-D-glucamine (NMDG) chloride replacing 90 mM NaCl. […] For Ca^2+ concentration-response curves, choline chloride was used to maintain equimolar concentrations of Cl^− ions in the extracellular solution across the changing concentrations of calcium chloride. All compounds used in this study for concentration-response oocyte recordings were dissolved in deionized water as 50–100 mM stock solutions. In some rescue pharmacology experiments, we substituted 1 mM CaCl2 for 0.5 mM BaCl2 to evaluate Ca^2+-dependent control of receptor responses.

[Ca+2] [Ca^2+]
Effect on constitutive current, in words (compared to GluD2-A654T controls): increased Ca^2+ potency
Ca2+ % Max (NMDG+ − Na+) Mean ± SEM (normalized to NMDG+ − Na+ difference current): 245 ± 15 (9) %
EC50 (potentiation of constitutive current, read-out: Ca2+ EC50 [95% CI]): 80 µM
Ca2+ EC50 A654T/EC50 variant (ratio): 1.88

N[C@H](CO)C(=O)O [D-serine]
D-serine % Max (NMDG+ − Na+) Mean ± SEM (percent of constitutive leak current (NMDG+/Na+ difference current)): 42 ± 3.5 (14) %
